Results: ChEMBL document CHEMBL4813952, “Axial Chiral Binaphthoquinone and Perylenequinones from the Stromata of Hypocrella bambusae Are SARS-CoV-2 Entry Inhibitors” (J Nat Prod, 2021)
Activity calls are given as the source filed them. No cut-off for these calls is given here.

Assays:
[1] = Cytotoxicity against human 293T/ACE2 cells measured after 48 hrs by CCK8 assay; format: cell-based
[2] = target: Spike glycoprotein (Severe acute respiratory syndrome coronavirus 2) (UniProt P0DTC2); experiment: Inhibition of spike glycoprotein S in SARS-CoV-2 pseudovirus infected in human 293T/ACE2 cells assessed as inhibition of viral infection; format: cell-based
SARS-CoV-2 [3] = experiment: Antiviral activity against SARS-CoV-2 Wuhan-HU-1 infection on African green monkey Vero E6 cells assessed by drecrease in viral nucleocapsid N-protein expression at 20 uM measured after 48 hrs by DAPI staining based immunofluorescence microscopy; format: functional, organism-based; conditions: Severe acute respiratory syndrome coronavirus 2
SARS-CoV-2 [4] = experiment: Antiviral activity against SARS-CoV-2 Wuhan-HU-1 infected in African green monkey Vero E6 cells assessed as inhibition of viral infection when cells were preincubated for 1 hr followed by viral infection measured after 24 hrs by qPCR analysis; format: functional, organism-based; conditions: Severe acute respiratory syndrome coronavirus 2, Wuhan-HU-1, Vero C1008
Vero C1008 = experiment: Cytotoxicity against African Green monkey Vero E6 cells at 10 uM measured after 24 to 48 hrs by CCK8 assay; format: cell-based; conditions: chlorocebus sabaeus, vero c1008, 10 µM, time 24-48 hrs
SARS-CoV-2 [5] = experiment: Antiviral activity against SARS-CoV-2 Wuhan-HU-1 infection on African green monkey Vero E6 cells assessed by drecrease in viral nucleocapsid N-protein expression measured after 48 hrs by DAPI staining based immunofluorescence microscopy; format: functional, organism-based; conditions: Severe acute respiratory syndrome coronavirus 2, dose 0.08-2.2 µM
[6] = target: Spike glycoprotein (Severe acute respiratory syndrome coronavirus 2) (UniProt P0DTC2); experiment: Inhibition of SARS-CoV-2 spike glycoprotein S expressed in human HEK293T cells cotransfected with pAAV-IRES-GFP assessed as inhibition of membrane fusion to African green monkey Vero E6 cells causing suppression of syncytium formation at 2 uM preincubated for 30 mins measured after 24 hrs by cell-cell fusion based fluorescence microscopy; conditions: time 24.5 hrs
Spike glycoprotein = Spike glycoprotein (Severe acute respiratory syndrome coronavirus 2, UniProt P0DTC2); experiment: Binding affinity to SARS-CoV-2 spike glycoprotein S RBD at 25 degreeC by surface plasmon resonance assay

| SMILES | CC50 at 48 h [1] [nM] | inhibition [2] | Activity (SARS-CoV-2 [3]) | EC50 (SARS-CoV-2 [4]) [nM] | Activity (Vero C1008) | Activity (SARS-CoV-2 [5]) | inhibition [6] | Kd (Spike glycoprotein) [nM] |
| --- | --- | --- | --- | --- | --- | --- | --- | --- |
| COC1=C(CC(C)=O)C(=O)c2c(c(O)cc(OC)c2-c2c(OC)cc(O)c3c2C(=O)C(CC(C)=O)=C(OC)C3=O)C1=O | > 10000 | inactive | inactive | – | – | – | – | – |
| COc1c(O)c2c(=O)cc(OC)c3c4c(OC)cc(=O)c5c(O)c(OC)c6c(c(c1C[C@](C)(O)[C@H]6C(C)=O)c23)c54 | 2500 | inactive | – | 210 | Non-Toxic | Dose-Dependent Effect | inactive | 22.8 |
| COc1c2c3c4c(c(OC)c(=O)c5c(O)cc(OC)c(c6c(OC)cc(O)c(c1=O)c63)c54)[C@@H](C(C)=O)[C@@](C)(O)C2 [HYPOCRELLIN A] | 2000 | inactive | – | 220 | Non-Toxic | Dose-Dependent Effect | inactive | 37.9 |
| COc1c2c3c4c(c(OC)c(=O)c5c(O)cc(OC)c(c6c(OC)ccc(c1=O)c63)c54)CC(C)=C2C(C)=O | > 10000 | inactive | – | – | – | – | – | – |
| COC1=C2c3c4c5c(c(O)cc(OC)c5c5c(OC)cc(O)c(c35)C1=O)C(=O)[C@@H](OC)[C@@]41C[C@](C)(O)[C@@H]2[C@]1(C)O | > 10000 | inactive | – | – | – | – | – | – |
| COC1=C2c3c4c5c(c(O)cc(OC)c5c5c(OC)cc(O)c(c35)C1=O)C(=O)[C@@H](OC)[C@@]41C[C@](C)(O)[C@@H]2[C@@]1(C)O | > 10000 | inactive | – | – | – | – | – | – |
| COC1=CC(=O)c2c(O)c(OC)c3c(c2C1=O)-c1c(c(OC)c(O)c2c1C(=O)C(OC)=CC2O)C[C@](C)(O)[C@@H]3C(C)=O (stereo not given in full) | > 10000 | inactive | – | – | – | – | – | – |
